How the values were obtained:
in vivo [1] = conditions: C57BL/6, mouse, brain/plasma, sc, 0.01 mg/kg
[2] = mouse, in vivo, sc, 0.01 mg/kg, 0.5 h
in vivo [3] = conditions: C57BL/6, mouse, plasma, sc, 0.01 mg/kg
[4] = Fraction unbound in C57BL/6 mouse plasma at 0.03 mg/kg, sc after 30 mins; assay type: ADME, organism-based; conditions: in vivo, 0.5 h
[5] = Ratio of drug level in brain to plasma in C57BL/6 mouse at 0.03 mg/kg, sc after 30 mins; assay type: ADME, organism-based; conditions: read-out: BPR
[6] = Plasma concentration in C57BL/6 mouse at 0.03 mg/kg, sc after 30 mins; assay type: ADME, organism-based

Question: With `Brc1ccc2c(NC3=NC[C@@]4(CN5CCC4CC5)O3)ncnn12` as the compound, how does the Kp at 0.5 h (in vivo [1]) read?
Answer: 4.9

Question: And the Cp(f) [2]?
Answer: 50 to 75%

Question: What about the concentration at 0.5 h (in vivo [3]) of the same compound?
Answer: 7 nM

Question: Which Cp(f) [4] does the source give for `Clc1ccc2c(NC3=NC[C@@]4(CN5CCC4CC5)O3)ncnn12` here?
Answer: 50 to 75%

Question: What about the Kp at 0.5 h [5] of the same compound?
Answer: 1.9

Question: What about the concentration at 0.5 h [6] of the same compound?
Answer: 18 nM

Reference: ChEMBL document CHEMBL3870365, “Development of 4-Heteroarylamino-1'-azaspiro[oxazole-5,3'-bicyclo[2.2.2]octanes] as α7 Nicotinic Receptor Agonists” (ACS Med Chem Lett, 2017)
